From patent US20240383913A1, “THIOPHENE RING COMPOUND, PREPARATION METHOD THEREFOR AND APPLICATION THEREOF” (CENTER FOR EXCELLENCE IN MOLECULAR CELL SCIENCE, CHINESE …, priority 2021, published 2024)

How the values were obtained:
dopamine D2 receptors [1] = target: T1, dopamine D2 receptors (Homo sapiens (Human), UniProt P14416); test: Affinity for dopamine D2 receptors, radioligand competition with [3H]-Methylspiperone; assay type: binding; conditions: 293T membrane transiently expressing D2
Procedure: The affinity of the compounds of the present disclosure for the dopamine D2 receptors was determined by the method of radioligand competition experiment. In the first step, a cell membrane component containing specific dopamine D2 receptors was prepared. A 10 cm culture dish was used for transfection with 10 ng of the dopamine D2 receptors and 40 μL of polyethylenimine (PEI hereafter). After 48 hours, the 10 cm culture dish was taken out from the cell culture incubator and the cultured cells had expressed the dopamine D2 receptors. A vacuum pump was used to suck off the culture medium, 3 mL of lysis buffer was added to each culture dish, and the cells were placed in a 4° C. cold room for 10 minutes. After the cells were detached, the cells were transferred to a 15 mL centrifuge tube and centrifuged at 1500 rpm for 5 minutes at 4° C., and the supernatant was discarded. The cell pellet was transferred to a tissue homogenizer, and 3 mL of lysis buffer was added and fully ground until the cells were broken. Then, cell suspension was equally aliquoted into several EP tubes, centrifuged at 12000 rpm for 5 minutes at 4° C., and the supernatant was discarded. The precipitate was the cell membrane component containing the dopamine D2 receptors. […] First, a standard binding buffer was added to the cell membrane component containing the dopamine D2 receptors, and the cell membrane was disrupted and resuspended with an electric tissue homogenizer. 30 μL of membrane protein suspension was added to each well of a 96-well plate. Then, 30 μL of different drugs were added to the 96-well plate sequentially from bottom to top to ensure that the final drug concentrations were 10^−5 M, 10^−6 M, 10^−7 M, 10^−8 M, 10^−9 M, and 0 M, with two replicates per treatment. Next, 30 μL of [3H]-Methylspiperone was added to each well of the 96-well plate. The plate was incubated for 2 hours at room temperature in the dark. Detection was conducted. The machine readout value reflected the amount of [3H]-Methylspiperone bound on the membrane, and after further data processing, the affinity Ki values of different compounds for the dopamine D2 receptors were obtained.

dopamine D2 receptors [2] = target: T1, dopamine D2 receptors; test: Dopamine D2 receptor β-arrestin2 BRET (recruitment); assay type: cell-based; conditions: for Emax: read-out: β-arrestin2 BRET (Emax %);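 on all read-outs here: cells co-expressing Rluc-fused D2 receptor, GRK2 and GFP2-fused β-arrestin2, BRET read with coelenterazine 400a after adding drug over a concentration series, in duplicate wells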
Procedure: (§1) To examine the downstream G protein signaling pathway mediated by dopamine D2 receptors, on the first day, a 6 cm culture dish was used for transfection with 1 μg of dopamine D2 receptors, 1 μg of Gαi1 containing a C-terminal seaweed luciferase (Gαi1-Rluc), 1 μg of Gβ3, 1 μg of Gγ9 containing C-terminal green fluorescent protein (Gγ9-GFP), and 16 μL of PEI. At the same time, in order to examine the downstream β-arrestin2 signaling pathway mediated by dopamine D2 receptors, on the first day, a 6 cm culture dish was used for transfection with 500 μg of dopamine D2 receptors containing C-terminal seaweed luciferase (D2-Rluc), 500 μg of G protein-coupled receptor kinase 2 (GRK2), 2500 μg of β-arrestin2 containing N-terminal green fluorescent protein (GFP2-ARRB2) mixed with 14 μL of PEI. The next day, the confluent cells of a 6 cm culture dish were digested and reseeded into a 96-well plate with 100 μL of culture medium added to each well. On the third day, the drugs were added for test. The 96-well plate was taken out from the cell incubator to decant the culture medium, 40 μL of the substrate coelenterazine 400a (final concentration of 5 μM) was added to each well, and then 20 μL of different drugs were added sequentially from left to right to ensure that the final concentration of the drug decreased gradually from bottom to top, with two replicates per treatment. Finally, the prepared samples were loaded on machine for test. The machine readout value reflected the recruitment of β-arrestin2 to the membrane or the dissociation of G protein trimer. The former indicated the degree of activation of the β-arrestin2 signaling pathway downstream of the dopamine D2 receptors, and the latter indicated the degree of activation of the G protein signaling pathway downstream of the dopamine D2 receptors.

dopamine D2 receptors [3] = target: T1, dopamine D2 receptors; test: Dopamine D2 receptor Gαi1 BRET (G protein trimer dissociation); assay type: cell-based; conditions: for Emax: read-out: Gαi1 BRET (Emax %);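 on all read-outs here: transfected cells co-expressing D2 receptor, Gαi1-Rluc, Gβ3 and Gγ9-GFP, BRET with coelenterazine 400a at 5 µM read as G protein trimer dissociation, graded drug concentrations in duplicate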
Procedure: as §1

5-HT1A receptor [4] = target: T2, 5-HT1A receptor (Homo sapiens (Human), UniProt P08908); test: 5-HT1A receptor Gαi1 BRET (G protein trimer dissociation); assay type: cell-based; conditions: 5-HT1A receptor, G protein pathway; for EC50: read-out: Gαi1 BRET EC50;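 on all read-outs here: cells transiently co-expressing 5-HT1A receptor, luciferase-tagged Gαi1, Gβ3 and GFP-tagged Gγ9, seeded in 96-well plates for BRET measurement of G protein signaling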
Procedure: (§2) The affinity of the compounds of the present disclosure for the 5-HTIA receptors was determined by the method of radioligand competition experiment. In the first step, a cell membrane component containing specific 5-HTIA receptor was prepared. A 10 cm culture dish was used for transfection with 10 ng of the 5-HTIA receptor and 40 μL of PEI. After 48 hours, the 10 cm culture dish was taken out from the cell incubator and the cultured cells had expressed the 5-HTIA receptor. A vacuum pump was used to suck off the culture medium, 3 mL of lysis buffer was added to each culture dish, and the cells were placed in a 4° C. cold room for 10 minutes. After the cells were detached, the cells were transferred to a 15 mL centrifuge tube and centrifuged at 1500 rpm for 5 minutes at 4° C., and the supernatant was discarded. The cell pellet was transferred to a tissue homogenizer, and 3 mL of lysis buffer was added and fully ground until the cells were broken. Then, cell suspension was equally aliquoted into several EP tubes, centrifuged at 12000 rpm for 5 minutes at 4° C., and the supernatant was discarded. The precipitate was the cell membrane component containing the 5-HT1A receptor. […] First, a standard binding buffer was added to the cell membrane component containing the 5-HT1A receptor, and the cell membrane was disrupted and resuspended with an electric tissue homogenizer. 30 μL of membrane protein suspension was added to each well of a 96-well plate. Then, 30 μL of different drugs were added to the 96-well plate sequentially from bottom to top to ensure that the final drug concentrations were 10^−5 M, 10^−6 M, 10^−7 M, 10^−8 M, 10^−9 M, and 0 M, with two replicates per treatment. Next, 30 μL of [3H]-LSD was added to each well of the 96-well plate. The plate was incubated for 2 hours at room temperature in the dark. Detection was conducted. The machine readout value reflected the amount of [3H]-LSD bound on the membrane, and after further data processing, the affinity Ki values of different compounds for the 5-HTIA receptor were obtained. To examine the downstream G protein signaling pathway mediated by 5-HTIA receptors, on the first day, a 6 cm culture dish was used for transfection with 1 μg of 5-HTIA receptors, 1 μg of Gαi1 containing C-terminal seaweed luciferase (Gαi1-Rluc), 1 μg of Gβ3, 1 μg of Gγ9 containing C-terminal green fluorescent protein (Gγ9-GFP), and 16 μL of PEI. The next day, the confluent cells of a 6 cm culture dish were digested and reseeded into a 96-well plate with 100 μL of culture medium was added to each well. On the third day, the drugs were added for test. The 96-well plate was taken out from the cell incubator to decant the culture medium, 40 μL of the substrate coelenterazine 400a (final concentration of 5 μM) was added to each well, and then 20 μL of different drugs were added sequentially from left to right to ensure that the final concentration of the drug decreased gradually from bottom to top, with two replicates per treatment. Finally, the prepared samples were loaded on machine for test. The machine readout value reflected the dissociation of G protein trimer, and thereby indicated the degree of activation of the G protein signaling pathway downstream of the 5-HTIA receptors.

5-HT1A receptor [5] = target: T2, 5-HT1A receptor; test: Affinity for 5-HT1A receptors, radioligand competition with [3H]-LSD; assay type: binding; conditions: 293T membrane transiently expressing 5-HT1A; [3H]-LSD; read-out: 5-HT1A affinity Ki;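 further: membranes from cells transiently transfected with 5-HT1A receptor, bound [3H]-LSD displaced by compound at 10^-9 to 10^-5 M, 2 h incubation at room temperature in the dark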
Procedure: as §2

5-HT2A receptor [6] = target: T3, 5-HT2A receptor (Homo sapiens (Human), UniProt P28223); test: 5-HT2A receptor β-arrestin2 BRET (recruitment); assay type: cell-based; conditions: 5-HT2A receptor, β-arrestin2 pathway; for EC50: read-out: β-arrestin2 BRET EC50;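 on all read-outs here: cells co-expressing Rluc-tagged 5-HT2A receptor, GRK2 and GFP2-tagged β-arrestin2, read by BRET with coelenterazine 400a (5 µM) across graded drug concentrations in duplicate, signal reflecting β-arrestin2 membrane recruitment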
Procedure: (§3) To examine the downstream G protein signaling pathway mediated by 5-HT2A receptors, on the first day, a 6 cm culture dish was used for transfection with 1 μg of 5-HT2A receptors, 1 μg of Gαq containing C-terminal seaweed luciferase (Gαq-Rluc), 1 μg of Gβ3, 1 μg of Gγ9 containing C-terminal green fluorescent protein (Gγ9-GFP), and 16 μL of PEI. At the same time, in order to examine the downstream β-arrestin2 signaling pathway mediated by 5-HT2A receptors, on the first day, a 6 cm culture dish was used for transfection with 500 μg of 5-HT2A receptors containing C-terminal seaweed luciferase (5-HT2A-Rluc), 500 μg of G protein-coupled receptor kinase 2 (GRK2), 2500 μg of β-arrestin2 containing N-terminal green fluorescent protein (GFP2-ARRB2), and 14 μL of PEI. The next day, the confluent cells of a 6 cm culture dish were digested and reseeded into a 96-well plate with 100 μL of culture medium was added to each well. On the third day, the drugs were added for test. The 96-well plate was taken out from the cell incubator to decant the culture medium, 40 μL of the substrate coelenterazine 400a (final concentration of 5 μM) was added to each well, and then 20 μL of different drugs were added sequentially from left to right to ensure that the final concentration of the drug decreased gradually from bottom to top, with two replicates per treatment. Finally, the prepared samples were loaded on machine for test. The machine readout value reflected the recruitment of β-arrestin2 to the membrane or the dissociation of G protein trimer. The former indicated the degree of activation of the β-arrestin2 signaling pathway downstream of the 5-HT2A receptors, and the latter indicated the degree of activation of the G protein signaling pathway downstream of the 5-HT2A receptors.

5-HT2A receptor [7] = target: T3, 5-HT2A receptor; test: 5-HT2A receptor Gαq BRET (G protein trimer dissociation); assay type: cell-based; conditions: for Emax: read-out: Gαq BRET (Emax %); for EC50: read-out: Gαq BRET EC50;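 on all read-outs here: cells transfected with 5-HT2A receptor, Gαq-Rluc, Gβ3 and Gγ9-GFP, BRET read with coelenterazine 400a (5 µM) across a compound dilution series in duplicate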
Procedure: as §3

5-HT2A receptor [8] = target: T3, 5-HT2A receptor; test: Affinity for 5-HT2A receptors, radioligand competition with [3H]-ketanserin; assay type: binding; conditions: 293T membrane transiently expressing 5-HT2A
Procedure: The affinity of the compounds of the present disclosure for the 5-HT2A receptors was determined by the method of radioligand competition experiment. In the first step, a cell membrane component containing specific 5-HT2A receptor was prepared. A 10 cm dish was used for transfection with 10 ng of the 5-HT2A receptor and 40 μL of PEI. After 48 hours, the 10 cm dish was taken out from the cell incubator and the cultured cells had expressed the 5-HT2A receptor. A vacuum pump was used to suck off the culture medium, 3 mL of lysis buffer was added to each culture dish, and the cells were placed in a 4° C. cold room for 10 minutes. After the cells were detached, the cells were transferred to a 15 mL centrifuge tube and centrifuged at 1500 rpm for 5 minutes at 4° C., and the supernatant was discarded. The cell pellet was transferred to a tissue homogenizer, and 3 mL of lysis buffer was added and fully ground until the cells were broken. Then, cell suspension was equally aliquoted into several EP tubes, centrifuged at 12000 rpm for 5 minutes at 4° C., and the supernatant was discarded. The precipitate was the cell membrane component containing the 5-HT2A receptor. […] First, a standard binding buffer was added to the cell membrane component containing the 5-HT2A receptor, and the cell membrane was disrupted and resuspended with an electric tissue homogenizer. 30 μL of membrane protein suspension was added to each well of a 96-well plate. Then, 30 μL of different drugs were added to the 96-well plate sequentially from bottom to top to ensure that the final drug concentrations were 10^−5 M, 10^−6 M, 10^−7 M, 10^−8 M, 10^−9 M, and 0 M, with two replicates per treatment. Next, 30 μL of [3H]-ketanserin was added to each well of the 96-well plate. The plate was incubated for 2 hours at room temperature in the dark. Detection was conducted. The machine readout value reflected the amount of [3H]-ketanserin bound on the membrane, and after further data processing, the affinity Ki values of different compounds for the 5-HT2A receptor were obtained.

[9] = D2 receptor, β-arrestin2 pathway, read-out: β-arrestin2 BRET EC50
[10] = D2 receptor, G protein pathway, read-out: Gαi1 BRET EC50
[11] = 5-HT2A receptor, G protein pathway
[12] = D2 receptor, β-arrestin2 pathway

T1 sequence (P14416 whole entry, the tested form may be a part): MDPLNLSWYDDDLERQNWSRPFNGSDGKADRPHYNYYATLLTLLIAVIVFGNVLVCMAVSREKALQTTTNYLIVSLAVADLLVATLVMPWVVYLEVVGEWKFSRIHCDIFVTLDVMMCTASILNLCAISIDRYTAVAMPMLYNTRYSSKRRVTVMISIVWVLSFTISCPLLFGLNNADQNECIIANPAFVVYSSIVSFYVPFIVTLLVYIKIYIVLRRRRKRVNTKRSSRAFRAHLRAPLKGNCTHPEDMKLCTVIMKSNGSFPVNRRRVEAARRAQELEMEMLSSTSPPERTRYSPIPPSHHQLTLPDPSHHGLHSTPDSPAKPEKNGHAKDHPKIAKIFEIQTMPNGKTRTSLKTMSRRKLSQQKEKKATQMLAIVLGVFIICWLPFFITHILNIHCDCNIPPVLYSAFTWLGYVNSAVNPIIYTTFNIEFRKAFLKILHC
T2 sequence (P08908 whole entry): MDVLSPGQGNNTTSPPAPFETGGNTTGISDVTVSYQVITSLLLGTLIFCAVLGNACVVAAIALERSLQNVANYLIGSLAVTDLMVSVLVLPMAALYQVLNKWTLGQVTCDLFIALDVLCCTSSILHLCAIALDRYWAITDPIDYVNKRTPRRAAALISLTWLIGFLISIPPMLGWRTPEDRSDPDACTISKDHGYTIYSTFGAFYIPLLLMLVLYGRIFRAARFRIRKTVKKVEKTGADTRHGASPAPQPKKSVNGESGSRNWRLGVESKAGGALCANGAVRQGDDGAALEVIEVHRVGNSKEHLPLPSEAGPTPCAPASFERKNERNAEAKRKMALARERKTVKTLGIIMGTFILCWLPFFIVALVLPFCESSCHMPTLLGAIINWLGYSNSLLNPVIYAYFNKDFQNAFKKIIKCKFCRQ
T3 sequence (P28223 whole entry): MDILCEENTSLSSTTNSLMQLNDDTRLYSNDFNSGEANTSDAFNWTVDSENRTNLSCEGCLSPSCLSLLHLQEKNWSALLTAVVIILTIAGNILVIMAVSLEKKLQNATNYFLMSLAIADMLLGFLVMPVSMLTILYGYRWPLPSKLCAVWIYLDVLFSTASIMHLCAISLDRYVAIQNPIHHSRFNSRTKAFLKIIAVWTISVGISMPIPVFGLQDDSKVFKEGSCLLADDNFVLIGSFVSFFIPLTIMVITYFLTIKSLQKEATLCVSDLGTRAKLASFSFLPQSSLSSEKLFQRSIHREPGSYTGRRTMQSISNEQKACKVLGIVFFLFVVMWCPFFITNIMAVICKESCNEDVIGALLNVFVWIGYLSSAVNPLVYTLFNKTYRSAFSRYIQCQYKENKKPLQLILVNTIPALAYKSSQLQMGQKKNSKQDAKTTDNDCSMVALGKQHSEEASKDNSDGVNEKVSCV

| Compound | Ki (dopamine D2 receptors [1]) | EC50 (dopamine D2 receptors [2]; [9]) | Emax (dopamine D2 receptors [2]) | EC50 (dopamine D2 receptors [3]; [10]) | Emax (dopamine D2 receptors [3]) | Emax (5-HT1A receptor [4]) | EC50 (5-HT1A receptor [4]) | Ki (5-HT1A receptor [5]) | Emax (5-HT2A receptor [7]) | Ki (5-HT2A receptor [8]) | EC50 (5-HT2A receptor [7]; [11]) | further results |
| --- | --- | --- | --- | --- | --- | --- | --- | --- | --- | --- | --- | --- |
| O=C(CN1CCN2c3cccc4scc(c34)CC2C1)c1ccc(F)cc1 (stereo not drawn) [Compound I-10, 1-(4-Fluorophenyl)-2-(6a,7,9,10-Tetrahydropyrazino[1,2-a]Thieno [4,3,2-De]Quinolin-8 (6H)-Yl) Ethan-1-One] | 2060 nM | 14.3 nM | 21.5% | 796 nM | 17.1% | 71% | 7200 nM | 970 nM | 110% |  |  | Emax (5-HT2A receptor [6]): 71.6% |
| O=c1ccc2ccc(OCCCCN3CCN4c5cccc6scc(c56)CC4C3)cc2[nH]1 (stereo not drawn) [Compound I-19, 7-(4-(6a,7,9,10-Tetrahydropyrazino[1,2-a]Thieno [4,3,2-De]Quinolin-8 (6H)-Yl) Butoxy) Quinolin-2 (1H)-One] | 10 nM | 43.9 nM | 64.5% | 8.26 nM | 74.6% | 81% | 3670 nM | 30 nM | 15.6% | 1410 nM | 1440 nM |  |
| O=C(N[C@H]1CC[C@H](CCN2CCN3c4cccc5scc(c45)CC3C2)CC1)N1CCCC1 (stereo partly drawn) [Compound I-28, N-(4-(2-(6a,7,9,10-Tetrahydropyrazino[1,2-a]Thieno [4,3,2-De]Quinolin-8 (6H)-Yl)Ethyl) Trans-Cyclohexyl) Pyrrolidine-1-Carboxamide] | 80 nM | 38.7 nM | 34.2% | 18 nM | 30.7% | 59% | 142 nM | 50 nM | 12.5% | 520 nM | 184 nM |  |
| c1csc(CCN2CCN3c4cccc5scc(c45)CC3C2)c1 (stereo not drawn) [Compound I-6, 8-(2-(Thiophen-2-Yl)Ethyl)-6,6a,7,8,9,10-Hexahydropyrazino[1,2-a]Thieno [4,3,2-De]Quinoline] | 5730 nM |  | 20.2% |  | 58.4% | 90% | 3230 nM | 2730 nM |  | 7250 nM |  | EC50 (dopamine D2 receptors [2]): 299 nM; EC50 (dopamine D2 receptors [3]): 342 nM; Emax (5-HT2A receptor [6]): 45.4%; EC50 (5-HT2A receptor [6]): 8340 nM |
| O=C1CCc2ccc(OCCCN3CCN4c5cccc6scc(c56)CC4C3)cc2N1 (stereo not drawn) [Compound I-18, 7-(3-(6a,7,9,10-Tetrahydropyrazino[1,2-a]Thieno [4,3,2-De]Quinolin-8 (6H)-Yl) Propoxy)-3,4-Dihydroquinolin-2 (1H)-One] | 270 nM | 279 nM | 71.9% | 33.9 nM | 91.3% | 82% | 696 nM | 10 nM |  | 160 nM |  |  |
| c1cc2c3c(csc3c1)CC1CN(CCCCOc3ccc4scnc4c3)CCN21 (stereo not drawn) [Compound I-21, 8-(4-(Benzo[d]Thiazol-5-Yloxy)Butyl)-6,6a,7,8,9,10-Hexahydropyrazino[1,2-a]Thieno [4,3,2-De]Quinoline] | 7180 nM | 233 nM | 32.6% | 146 nM | 54% | 68% | 8180 nM | 3220 nM | 16.6% | > 10000 nM | 4380 nM |  |
| O=C(NCCN1CCN2c3cccc4scc(c34)CC2C1)c1ccc(F)cc1 (stereo not drawn) [Compound I-12, 4-Fluoro-N-(2-(6a,7,9,10-Tetrahydropyrazino[1,2-a]Thieno [4,3,2-De]Quinolin-8 (6H)-Yl)Ethyl)Benzamide] | 1210 nM |  |  |  |  | 93% | 1320 nM | 590 nM |  | 1520 nM |  | Emax (5-HT2A receptor [6]): 5.7%; EC50 (5-HT2A receptor [6]): 5240 nM |
| O=C1NCCN1c1cccc(CN2CCN3c4cccc5scc(c45)CC3C2)c1 (stereo not drawn) [Compound I-9, 1-(3-((6a,7,9,10-Tetrahydropyrazino[1,2-a]Thieno [4,3,2-De]Quinolin-8 (6H)-Yl)Methyl)Phenyl) Imidazolidin-2-One] | 800 nM | 28.6 nM |  | 281 nM |  | 55% | 14400 nM | 5460 nM | 25% | 690 nM | 747 nM | Emax (dopamine D2 receptors [2]; [12]): 24.2%; Emax (dopamine D2 receptors [3]; D2 receptor, G protein pathway): 23.1% |
| O=C(NCCN1CCN2c3cccc4scc(c34)CC2C1)C1CCOCC1 (stereo not drawn) [Compound I-14, N-(2-(6a,7,9,10-Tetrahydropyrazino[1,2-a]Thieno [4,3,2-De]Quinolin-8 (6H)-Yl)Ethyl)Tetrahydro-2H-Pyran-4-Carboxamide] | > 10000 nM |  |  |  |  | 86% | 2000 nM | 1300 nM |  | 1190 nM | 475 nM | β-arrestin2 BRET (Emax %) (5-HT2A receptor [6]): (21.00%); EC50 (5-HT2A receptor [6]): 123 nM; Gαq BRET (Emax %) (5-HT2A receptor [7]; [11]): (29.10%) |
| c1ccc(-c2cccc(CN3CCN4c5cccc6scc(c56)CC4C3)c2)cc1 (stereo not drawn) [Compound I-7, 8-([1, l′-Biphenyl]-3-Ylmethyl)-6,6a, 7,8,9, 10-Hexahydropyrazino[1,2-a]Thieno [4,3,2-De]Quinoline] |  |  |  |  |  |  |  | 39300 nM | 36.9% |  | 140 nM |  |
| O=C1CCc2ccc(OCCCCN3CCN4c5cccc6scc(c56)CC4C3)cc2N1 (stereo not drawn) [Compound I-20, 7-(4-(6a,7,9,10-Tetrahydropyrazino[1,2-a]Thieno [4,3,2-De]Quinolin-8 (6H)-Yl) Butoxy)-3,4-Dihydroquinolin-2 (1H)-One] | 30 nM | 464 nM | 35.6% | 107 nM | 64% | 72% | 1540 nM | 160 nM | 17.8% | 640 nM | 5590 nM |  |
| CN(C)C(=O)N[C@H]1CC[C@H](CCN2CCN3c4cccc5scc(c45)C[C@@H]3C2)CC1 [(+)-I-27] | > 10000 nM | 16 nM |  | 9.16 nM |  |  | 206 nM | 170 nM |  | 450 nM |  | β-arrestin2 BRET (Emax %) (dopamine D2 receptors [2]; [12]): (45.78%); Gαi1 BRET (Emax %) (dopamine D2 receptors [3]; D2 receptor, G protein pathway): (69.54%); Gαi1 BRET (Emax %) (5-HT1A receptor [4]): (60%) |
| O=C(CCCN1CCN2c3cccc4scc(c34)CC2C1)c1ccc(F)cc1 (stereo not drawn) [Compound I-11, 1-(4-Fluorophenyl)-4-(6a,7,9,10-Tetrahydropyrazino[1,2-a]Thieno [4,3,2-De]Quinolin-8 (6H)-Yl) Butan-1-One] | 470 nM |  |  |  |  | 28% | 3870 nM | 4540 nM |  | 320 nM |  |  |
| O=C1c2ccccc2CCCN1CCCCN1CCN2c3cccc4scc(c34)CC2C1 (stereo not drawn) [Compound I-25, 2-(4-(6a,7,9,10-Tetrahydropyrazino[1,2-a]Thieno [4,3,2-De]Quinolin-8 (6H)-Yl)Butyl)-2,3,4,5-Tetrahydro-1H-Benzo[c]Azepin-1-One] | 100 nM | 61.5 nM | 49.2% | 27.8 nM | 67.9% | 82% | 1320 nM | 770 nM | 17.8% | 300 nM | 969 nM |  |
| c1cc2c3c(csc3c1)CC1CN(CC3CC3)CCN21 (stereo not drawn) [Compound I-4, 8-(Cyclopropylmethyl)-6,6a,7,8,9,10-Hexahydropyrazino[1,2-a]Thieno [4,3,2-De]Quinoline] | 320 nM | 11.2 nM |  | 36.3 nM |  | 69% | 12800 nM | 590 nM |  |  |  | Emax (dopamine D2 receptors [2]; [12]): 16.4%; Emax (dopamine D2 receptors [3]; D2 receptor, G protein pathway): 25% |
| O=C1[C@H]2CCCC[C@H]2C(=O)N1CCCCN1CCN2c3cccc4scc(c34)CC2C1 (stereo partly drawn) [Compound I-26] |  | 44.8 nM | 19.8% | 573 nM | 47.9% | 88% | 489 nM | 400 nM | 26% |  | 339 nM |  |
| c1ccc(OCCN2CCN3c4cccc5scc(c45)CC3C2)cc1 (stereo not drawn) [Compound I-15, 8-(2-Phenoxyethyl)-6,6a,7,8,9,10-Hexahydropyrazino[1,2-a]Thieno [4,3,2-De]Quinoline] | 5500 nM | 164 nM | 10.5% | 334 nM | 18.6% | 57% | 5260 nM | 840 nM |  | 1710 nM |  | Emax (5-HT2A receptor [6]): 10%; EC50 (5-HT2A receptor [6]): 1770 nM |
| c1cc2c3c(csc3c1)CC1CN(CCCOc3ccc4c(c3)OCO4)CCN21 (stereo not drawn) [Compound I-16, 8-(3-(Benzo[d][1,3]Dioxol-5-Yloxy) Propyl)-6,6a, 7,8,9,10-Hexahydropyrazino[1,2-a]Thieno [4,3,2-De]Quinoline] | 1550 nM | 289 nM | 37.7% | 44.8 nM | 57.9% | 88% | 2720 nM | 560 nM | 19.5% | > 10000 nM | 340 nM |  |
